In paper PMC10466336, “Chemical Probe for Imaging of Polo-like Kinase 4 and Centrioles” (JACS Au, 2023):

Tests used:
[1] = biological target: T1, endogenous Plk4 in HeLa cells expressing Centrin1-GFP (Homo sapiens, UniProt O00444); assay: Live- and fixed-cell confocal/STED imaging of endogenous Plk4; type: cell-based; settings: one-step labeling, live cells
T1 construct: live cell imaging of endogenous Plk4; endogenous in cells; host or cells: HeLa cells stably expressing Centrin1-GFP
T1 sequence (O00444 1-970): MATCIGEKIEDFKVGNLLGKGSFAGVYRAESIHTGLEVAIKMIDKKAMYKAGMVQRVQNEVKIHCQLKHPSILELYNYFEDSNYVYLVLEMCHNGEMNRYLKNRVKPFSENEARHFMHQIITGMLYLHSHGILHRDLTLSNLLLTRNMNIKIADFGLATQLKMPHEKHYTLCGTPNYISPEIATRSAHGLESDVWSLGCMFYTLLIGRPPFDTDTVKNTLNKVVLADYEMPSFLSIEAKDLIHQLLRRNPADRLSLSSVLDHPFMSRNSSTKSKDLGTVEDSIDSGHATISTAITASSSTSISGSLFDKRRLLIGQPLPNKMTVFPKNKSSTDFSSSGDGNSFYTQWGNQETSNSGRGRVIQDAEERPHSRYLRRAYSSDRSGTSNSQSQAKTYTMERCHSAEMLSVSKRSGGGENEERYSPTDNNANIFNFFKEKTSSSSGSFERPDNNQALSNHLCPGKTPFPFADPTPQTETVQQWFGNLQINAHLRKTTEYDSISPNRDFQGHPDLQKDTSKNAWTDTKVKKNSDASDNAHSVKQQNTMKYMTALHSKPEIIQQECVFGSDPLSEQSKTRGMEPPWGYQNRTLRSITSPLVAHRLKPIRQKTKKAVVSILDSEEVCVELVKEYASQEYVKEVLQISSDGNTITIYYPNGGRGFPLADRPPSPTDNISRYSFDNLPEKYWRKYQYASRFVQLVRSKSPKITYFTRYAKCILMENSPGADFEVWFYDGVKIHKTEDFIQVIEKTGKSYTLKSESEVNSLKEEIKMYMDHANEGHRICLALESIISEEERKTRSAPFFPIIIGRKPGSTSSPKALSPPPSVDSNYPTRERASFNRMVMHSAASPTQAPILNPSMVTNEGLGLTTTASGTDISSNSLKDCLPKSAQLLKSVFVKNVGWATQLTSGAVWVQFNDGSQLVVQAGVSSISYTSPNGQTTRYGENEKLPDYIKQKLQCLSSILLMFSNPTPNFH

HeLa Centrin1-GFP cells = assay: Plk4 foci scoring at different time points of Cen-TCO incubation; type: cell-based, human; settings: 500 nM
Experimental: We conjugated trans-cyclooctene to the previously obtained compound (4) to obtain Cen-TCO (3) using the synthetic route outlined in Scheme S2. The resulting Cen-TCO (3) reacted with an appropriate tetrazine, such as SiR650-TetH (4a) (Figure S4A). The reaction was followed by LC-MS, and the data confirmed quantitative conversion of Cen-TCO (3) to the appropriate cycloaddition product Cen-Click-SiR650 (Figure S4A, D). […] To assess the phenotype caused by Cen-TCO (3), we incubated HeLa cells expressing Centrin1-GFP with different concentrations of Cen-TCO (3) for 24 h, followed by scoring of Centrin1-GFP foci numbers (Figure S5B). […] Next, we tested Cen-TCO (3) in combination with different tetrazine partners to determine the optimal combination for our bio-orthogonal strategy. We used four different tetrazines to visualize overexpressed GFP-Plk4(K41M) in HeLa cells following 1 h of incubation with Cen-TCO (500 nM) (Figure S6). […] Furthermore, the high fluorogenicity of HD653 makes it particularly well suited for live cell imaging.[33] Therefore, the combination of Cen-TCO (3) and HD653 (5) was further used for live cell imaging of endogenous Plk4 (Figure 4A). HeLa cells expressing Centrin1-GFP were incubated with 500 nM Cen-TCO (3) for 1 h, followed by a 15 min incubation with 500 nM HD653 (5) and imaged with a confocal microscope without prior washing. Despite the high unspecific background signal, a clear focus could be detected at centrioles (Figure 4B). […] The fwhm of the circular signal in this case was 368 ± 26 (N = 6) (Figure S7B), which corresponds to the size measured with overexpressed GFP-Plk4(K41M) (see Figure 3D), and approximately that of the torus region surrounding the centriole.[40] […] To assess this and test whether early time points after Cen-TCO addition may be immune to this problem, HeLa Centrin1-GFP cells were incubated with Cen-TCO (3) and fixed at different time points thereafter, after which the number of centriolar Plk4 foci per cell was quantified (Figure S8B–F). […]

| SMILES | labeling of endogenous Plk4 in live HeLa cells [1] | effect on Plk4 foci numbers (HeLa Centrin1-GFP cells; after 1 h of incubation) | effect on Plk4 foci numbers around centrioles (HeLa Centrin1-GFP cells; after 4 h) | effect on Plk4 foci numbers (HeLa Centrin1-GFP cells; up to 4 h of incubation) |
| --- | --- | --- | --- | --- |
| COc1c(Nc2cc(C)[nH]n2)nc(Sc2ccc(S(=O)(=O)Cc3cccc([N+](=O)[O-])c3F)cc2F)nc1N1CCC(CC(=O)NCCNC(=O)c2ccc(C(=O)O)c(C3=C4C=CC(=N)C=C4[Si](C)(C)c4cc(N)ccc43)c2)CC1 [2d] | failed to observe specific labeling | – | – | – |
| COc1c(Nc2cc(C)[nH]n2)nc(Sc2ccc(S(=O)(=O)Cc3cccc([N+](=O)[O-])c3F)cc2F)nc1N1CCC(CC(=O)NCCNC(=O)OC2CC/C=C/CCC2)CC1 (stereo not shown) [compound 3] | – | no perturbation | significant increase | only minor perturbations |
